ChEMBL document CHEMBL1123097, “Structure-activity relationship in PAF-acether. 2. rac-1-O-Octadecyl-2-O-acetyl-3-O-[gamma-(dimethylamino)propyl]glycerol ” (J Med Chem, 1985)

Legend:
Cavia porcellus [1] = experiment: Compound was evaluated in anesthetized guinea pigs, for the percentage drop in platelet counts between 2 min before and 1 min after injection at 520ng/kg; format: functional
Oryctolagus cuniculus [2] = organism: Oryctolagus cuniculus; experiment: In vitro platelet aggregating activity in washed rabbit platelets; format: functional
Cavia porcellus [3] = experiment: Compound was evaluated in anesthetized guinea pigs, for the percentage drop in platelet counts between 2 min before and 1 min after injection at 33 ng/kg; format: functional
Cavia porcellus [4] = experiment: Compound was evaluated in anesthetized guinea pigs, for the percentage drop in platelet counts between 2 min before and 1 min after injection at 66 ng/kg; format: functional
Oryctolagus cuniculus [5] = organism: Oryctolagus cuniculus; experiment: In vitro platelet aggregating activity in washed rabbit platelets; No lysis observed; format: functional
Cavia porcellus [6] = experiment: Compound was evaluated in anesthetized guinea pigs, for the percentage decrease of bronchoconstrictive activity; format: functional, Lung; design: scale not given: the % may be the effect or the level left
Cavia porcellus [7] = experiment: Compound was evaluated in anesthetized guinea pigs, for the percentage drop in platelet counts between 2 min before and 1 min after injection; format: functional

EC50 (Oryctolagus cuniculus [2]) [nM]	EC50 (Oryctolagus cuniculus [5]) [nM]	SMILES	Aggregation (Cavia porcellus [1]) [%]	Aggregation (Cavia porcellus [3]) [%]	Aggregation (Cavia porcellus [4]) [%]	Activity (Cavia porcellus [6]) [%]	Aggregation (Cavia porcellus [7]) [%]
> 4000	–	CCCCCCCCCCCCCCCCCCOCC(O)COCCC[N+](C)(C)C.[OH-] (stereo not given)	100	–	–	–	–
0.057	–	CCCCCCCCCCCCCCCCCCOC[C@H](COP(=O)([O-])OCC[N+](C)(C)C)OC(C)=O	–	48	–	–	–
–	170	CCCCCCCCCCCCCCCCCCOCC(COCCCN(C)C)OC(C)=O.Cl (stereo not given)	–	0	0	–	–
0.22	–	CCCCCCCCCCCCCCCCCCOCC(COP(=O)([O-])OCC[N+](C)(C)C)OC(C)=O (racemic)	–	–	–	100	0
